# From patent publication US8580794B2 (AbbVie Inc., priority 2009, dated 2013)
# Molecular target: GST-Bc1-2 (Homo sapiens, UniProt P10415)
# Assay: Time Resolved-Fluorescence Resonance Energy Transfer (TR-FRET) Bcl-2 binding assay with F-Bak peptide probe
# Conditions: GST-Bcl-2 1 nM, F-Bak probe 100 nM, Tb-anti-GST 1 nM; '<' = below limit of detection; read-out: TR-FRET Bcl-2 Binding Ki
# GST-Bc1-2, sequence (P10415 whole entry): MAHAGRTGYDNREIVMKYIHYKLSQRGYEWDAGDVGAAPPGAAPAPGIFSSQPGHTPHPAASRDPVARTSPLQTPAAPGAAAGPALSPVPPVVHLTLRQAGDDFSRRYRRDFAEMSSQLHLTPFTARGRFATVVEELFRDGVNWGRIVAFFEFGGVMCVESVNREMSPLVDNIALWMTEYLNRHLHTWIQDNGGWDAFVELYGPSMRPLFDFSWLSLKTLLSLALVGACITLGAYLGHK
row,SMILES,Ki
1,"COCC(C)(C)CNc1ccc(S(=O)(=O)NC(=O)c2ccc(N3CCN(CC4=C(c5ccc(Cl)cc5)CC(C)(C)CC4)CC3)cc2Oc2cnc3[nH]ccc3c2)cc1[N+](=O)[O-] [Example 155, 4-(4-{[2-(4-chlorophenyl)-4,4-dimethylcyclohex-1-en-1-yl]methyl}piperazin-1-yl)-N-({4-[(3-methoxy-2,2-dimethylpropyl)amino]-3-nitrophenyl}sulfonyl)-2-(1H-pyrrolo[2,3-b]pyridin-5-yloxy)benzamide]",0.059 nM
2,"CC1(C)CCC(CN2CCN(c3ccc(C(=O)NS(=O)(=O)c4ccc(NCc5ccc(O)cc5)c([N+](=O)[O-])c4)c(Oc4cnc5[nH]ccc5c4)c3)CC2)=C(c2ccc(Cl)cc2)C1 [Example 185, 4-(4-{[2-(4-chlorophenyl)-4,4-dimethylcyclohex-1-en-1-yl]methyl}piperazin-1-yl)-N-({4-[(4-hydroxybenzyl)amino]-3-nitrophenyl}sulfonyl)-2-(1H-pyrrolo[2,3-b]pyridin-5-yloxy)benzamide]",0.022 nM
3,"CC1(C)CCC(CN2CCN(c3ccc(C(=O)NS(=O)(=O)c4ccc(NCc5cccc(OC(F)(F)F)c5)c([N+](=O)[O-])c4)c(Oc4cnc5[nH]ccc5c4)c3)CC2)=C(c2ccc(Cl)cc2)C1 [Example 175, 4-(4-{[2-(4-chlorophenyl)-4,4-dimethylcyclohex-1-en-1-yl]methyl}piperazin-1-yl)-N-[(3-nitro-4-{[3-(trifluoromethoxy)benzyl]amino}phenyl)sulfonyl]-2-(1H-pyrrolo[2,3-b]pyridin-5-yloxy)benzamide]",0.119 nM
4,"CC1(C)CCC(CN2CCN(c3ccc(C(=O)NS(=O)(=O)c4cnc(OCC5CCOCC5)c(C(N)=O)c4)c(Oc4cnc5[nH]ccc5c4)c3)CC2)=C(c2ccc(Cl)cc2)C1 [Example 46, 5-({[4-(4-{[2-(4-chlorophenyl)-4,4-dimethylcyclohex-1-en-1-yl]methyl}piperazin-1-yl)-2-(1H-pyrrolo[2,3-b]pyridin-5-yloxy)benzoyl]amino}sulfonyl)-2-(tetrahydro-2H-pyran-4-ylmethoxy)nicotinamide]",0.935 nM
5,"CC1(C)CCC(CN2CCN(c3ccc(C(=O)NS(=O)(=O)c4ccc(NC5CCN(CC(F)F)CC5)c([N+](=O)[O-])c4)c(Oc4cnc5[nH]ccc5c4)c3)CC2)=C(c2ccc(Cl)cc2)C1 [Example 97, 4-(4-{[2-(4-chlorophenyl)-4,4-dimethylcyclohex-1-en-1-yl]methyl}piperazin-1-yl)-N-[(4-{[1-(2,2-difluoroethyl)piperidin-4-yl]amino}-3-nitrophenyl)sulfonyl]-2-(1H-pyrrolo[2,3-b]pyridin-5-yloxy)benzamide]",0.017 nM
6,"CC1(C)CC(c2ccc(Cl)cc2)=C(CN2CCN(c3ccc(C(=O)NS(=O)(=O)c4ccc(NCC5CCOCC5)c(C(F)(F)F)c4)c(Oc4cnc5[nH]ccc5c4)c3)CC2)CO1 [Example 42, 4-(4-{[4-(4-chlorophenyl)-6,6-dimethyl-5,6-dihydro-2H-pyran-3-yl]methyl}piperazin-1-yl)-2-(1H-pyrrolo[2,3-b]pyridin-5-yloxy)-N-{[4-[(tetrahydro-2H-pyran-4-ylmethyl)amino]-3-(trifluoromethyl)phenyl]sulfonyl}benzamide]",0.439 nM
7,"CC1(C)CCC(CN2CCN(c3ccc(C(=O)NS(=O)(=O)c4ccc(NN5CCN(C(=O)OC(C)(C)C)CC5)c([N+](=O)[O-])c4)c(Oc4cnc5[nH]ccc5c4)c3)CC2)=C(c2ccc(Cl)cc2)C1 [Example 232, tert-butyl 4-[(4-{[4-(4-{[2-(4-chlorophenyl)-4,4-dimethylcyclohex-1-en-1-yl]methyl}piperazin-1-yl)-2-(1H-pyrrolo[2,3-b]pyridin-5-yloxy)benzoyl]sulfamoyl}-2-nitrophenyl)amino]piperazine-1-carboxylate]",1.63 nM
8,"CC1(C)CCC(CN2CCN(c3ccc(C(=O)NS(=O)(=O)c4ccc(NC5CCC(N6CCC(F)(F)C6)CC5)c([N+](=O)[O-])c4)c(Oc4cnc5[nH]ccc5c4)c3)CC2)=C(c2ccc(Cl)cc2)C1 (stereo not shown) [Example 346, 4-(4-{[2-(4-chlorophenyl)-4,4-dimethylcyclohex-1-en-1-yl]methyl}piperazin-1-yl)-N-[(4-{[4-(3,3-difluoropyrrolidin-1-yl)cyclohexyl]amino}-3-nitrophenyl)sulfonyl]-2-(1H-pyrrolo[2,3-b]pyridin-5-yloxy)benzamide]",0.042 nM
9,"CC1(C)CCC(c2ccc(Cl)cc2)=C(CN2CCN(c3ccc(C(=O)NS(=O)(=O)c4cnc(OCC5CCOCC5)c(C#N)c4)c(Oc4cnc5[nH]ccc5c4)c3)CC2)C1 [Example 76, 4-(4-{[2-(4-chlorophenyl)-5,5-dimethylcyclohex-1-en-1-yl]methyl}piperazin-1-yl)-N-{[5-cyano-6-(tetrahydro-2H-pyran-4-ylmethoxy)pyridin-3-yl]sulfonyl}-2-(1H-pyrrolo[2,3-b]pyridin-5-yloxy)benzamide]",0.196 nM
10,"CC1(C)CCC(CN2CCN(c3ccc(C(=O)NS(=O)(=O)c4cc(F)c(OCC5(F)CCOCC5)c(F)c4)c(Oc4cnc5[nH]ccc5c4)c3)CC2)=C(c2ccc(Cl)cc2)C1 [Example 310, 4-(4-{[2-(4-chlorophenyl)-4,4-dimethylcyclohex-1-en-1-yl]methyl}piperazin-1-yl)-N-({3,5-difluoro-4-[(4-fluorotetrahydro-2H-pyran-4-yl)methoxy]phenyl}sulfonyl)-2-(1H-pyrrolo[2,3-b]pyridin-5-yloxy)benzamide]",0.165 nM
11,"O=C(NS(=O)(=O)c1ccc(NCC2CCOCC2)c([N+](=O)[O-])c1)c1ccc(N2CCN(CC3=C(c4ccc(Cl)cc4)CCC4(CCCC4)C3)CC2)cc1Oc1cnc2[nH]ccc2c1 [Example 79, 4-(4-{[8-(4-chlorophenyl)spiro[4.5]dec-7-en-7-yl]methyl}piperazin-1-yl)-N-({3-nitro-4-[(tetrahydro-2H-pyran-4-ylmethyl)amino]phenyl}sulfonyl)-2-(1H-pyrrolo[2,3-b]pyridin-5-yloxy)benzamide]",< 0.01 nM
12,"CC1(C)CCC(CN2CCN(c3ccc(C(=O)NS(=O)(=O)c4ccc(NCC5CCOCC5)c(C#N)c4)c(Oc4cnc5[nH]ccc5c4)c3)CC2)=C(c2ccc(Cl)cc2)C1 [Example 110, 4-(4-{[2-(4-chlorophenyl)-4,4-dimethylcyclohex-1-en-1-yl]methyl}piperazin-1-yl)-N-({3-cyano-4-[(tetrahydro-2H-pyran-4-ylmethyl)amino]phenyl}sulfonyl)-2-(1H-pyrrolo[2,3-b]pyridin-5-yloxy)benzamide]",0.557 nM
13,"CC1(C)CCC(CN2CCN(c3ccc(C(=O)NS(=O)(=O)c4ccc(O[C@@H]5CCN(C(CF)CF)C5)c([N+](=O)[O-])c4)c(Oc4cnc5[nH]ccc5c4)c3)CC2)=C(c2ccc(Cl)cc2)C1 [Example 235, 4-(4-{[2-(4-chlorophenyl)-4,4-dimethylcyclohex-1-en-1-yl]methyl}piperazin-1-yl)-N-[(4-{[(3R)-1-(1,3-difluoropropan-2-yl)pyrrolidin-3-yl]oxy}-3-nitrophenyl)sulfonyl]-2-(1H-pyrrolo[2,3-b]pyridin-5-yloxy)benzamide]",0.023 nM
14,"CC1(C)CCC(CN2CCN(c3ccc(C(=O)NS(=O)(=O)c4ccc(NC5CCN(C(C)(C)C)CC5)c([N+](=O)[O-])c4)c(Oc4cnc5[nH]ccc5c4)c3)CC2)=C(c2ccc(Cl)cc2)C1 [Example 227, N-({4-[(1-tert-butylpiperidin-4-yl)amino]-3-nitrophenyl}sulfonyl)-4-(4-{[2-(4-chlorophenyl)-4,4-dimethylcyclohex-1-en-1-yl]methyl}piperazin-1-yl)-2-(1H-pyrrolo[2,3-b]pyridin-5-yloxy)benzamide]",< 0.01 nM
15,"CC1(C)CCC(CN2CCN(c3ccc(C(=O)NS(=O)(=O)c4ccc(NC[C@H]5CN(C6COC6)CCO5)c([N+](=O)[O-])c4)c(Oc4cnc5[nH]ccc5c4)c3)CC2)=C(c2ccc(Cl)cc2)C1 [Example 361, 4-(4-{[2-(4-chlorophenyl)-4,4-dimethylcyclohex-1-en-1-yl]methyl}piperazin-1-yl)-N-{[3-nitro-4-({[(2S)-4-(oxetan-3-yl)morpholin-2-yl]methyl}amino)phenyl]sulfonyl}-2-(1H-pyrrolo[2,3-b]pyridin-5-yloxy)benzamide]",< 0.01 nM
16,"CC1(C)CCC(CN2CCN(c3ccc(C(=O)NS(=O)(=O)c4ccc(OCC5(F)CCN(C6COC6)CC5)c(Cl)c4)c(Oc4cnc5[nH]ccc5c4)c3)CC2)=C(c2ccc(Cl)cc2)C1 [Example 322, N-[(3-chloro-4-{[4-fluoro-1-(oxetan-3-yl)piperidin-4-yl]methoxy}phenyl)sulfonyl]-4-(4-{[2-(4-chlorophenyl)-4,4-dimethylcyclohex-1-en-1-yl]methyl}piperazin-1-yl)-2-(1H-pyrrolo[2,3-b]pyridin-5-yloxy)benzamide]",< 0.01 nM
17,"CC1(C)CCC(CN2CCN(c3ccc(C(=O)NS(=O)(=O)c4cnc(OC[C@@H]5CCN(CC(F)F)C5)c(Cl)c4)c(Oc4cnc5[nH]ccc5c4)c3)CC2)=C(c2ccc(Cl)cc2)C1 [Example 281, N-[(5-chloro-6-{[(3R)-1-(2,2-difluoroethyl)pyrrolidin-3-yl]methoxy}pyridin-3-yl)sulfonyl]-4-(4-{[2-(4-chlorophenyl)-4,4-dimethylcyclohex-1-en-1-yl]methyl}piperazin-1-yl)-2-(1H-pyrrolo[2,3-b]pyridin-5-yloxy)benzamide]",0.145 nM
18,"CN1CCC(F)(COc2ccc(S(=O)(=O)NC(=O)c3ccc(N4CCN(CC5=C(c6ccc(Cl)cc6)CC(C)(C)CC5)CC4)cc3Oc3cnc4[nH]ccc4c3)cc2S(=O)(=O)C(F)(F)F)CC1 [Example 230, 4-(4-{[2-(4-chlorophenyl)-4,4-dimethylcyclohex-1-en-1-yl]methyl}piperazin-1-yl)-N-({4-[(4-fluoro-1-methylpiperidin-4-yl)methoxy]-3-[(trifluoromethyl)sulfonyl]phenyl}sulfonyl)-2-(1H-pyrrolo[2,3-b]pyridin-5-yloxy)benzamide]",0.031 nM
19,"COCCN1CCCC(CNc2ccc(S(=O)(=O)NC(=O)c3ccc(N4CCN(CC5=C(c6ccc(Cl)cc6)CC(C)(C)CC5)CC4)cc3Oc3cnc4[nH]ccc4c3)cc2[N+](=O)[O-])C1 (stereo not shown) [Example 228, 4-(4-{[2-(4-chlorophenyl)-4,4-dimethylcyclohex-1-en-1-yl]methyl}piperazin-1-yl)-N-{[4-({[1-(2-methoxyethyl)piperidin-3-yl]methyl}amino)-3-nitrophenyl]sulfonyl}-2-(1H-pyrrolo[2,3-b]pyridin-5-yloxy)benzamide]",26.8 nM
